One data set deals with RECEPTEURS α2. Briefly: Affinity for the α2 receptor in vitro. The class given is binding. The following applies: read-out: AFFINITE RECEPTEURS α2 IN VITRO IC […]; read-out: […] […] α2 IN VITRO IC 50 M.
In a further data set the target is DA (Homo sapiens, UniProt Q01959). Briefly: Inhibition of neurotransmitter uptake in vitro, dopamine. The class given is cell-based. The following applies: for IC50: read-out: UPTAKE NEUROTRANSMETTEUR IN VITRO IC 50 M DA; for UPTAKE NEUROTRANSMETTEUR IN VITRO IC 50 M DA: DA = Dopamine.
Chain of DA (Q01959 whole entry): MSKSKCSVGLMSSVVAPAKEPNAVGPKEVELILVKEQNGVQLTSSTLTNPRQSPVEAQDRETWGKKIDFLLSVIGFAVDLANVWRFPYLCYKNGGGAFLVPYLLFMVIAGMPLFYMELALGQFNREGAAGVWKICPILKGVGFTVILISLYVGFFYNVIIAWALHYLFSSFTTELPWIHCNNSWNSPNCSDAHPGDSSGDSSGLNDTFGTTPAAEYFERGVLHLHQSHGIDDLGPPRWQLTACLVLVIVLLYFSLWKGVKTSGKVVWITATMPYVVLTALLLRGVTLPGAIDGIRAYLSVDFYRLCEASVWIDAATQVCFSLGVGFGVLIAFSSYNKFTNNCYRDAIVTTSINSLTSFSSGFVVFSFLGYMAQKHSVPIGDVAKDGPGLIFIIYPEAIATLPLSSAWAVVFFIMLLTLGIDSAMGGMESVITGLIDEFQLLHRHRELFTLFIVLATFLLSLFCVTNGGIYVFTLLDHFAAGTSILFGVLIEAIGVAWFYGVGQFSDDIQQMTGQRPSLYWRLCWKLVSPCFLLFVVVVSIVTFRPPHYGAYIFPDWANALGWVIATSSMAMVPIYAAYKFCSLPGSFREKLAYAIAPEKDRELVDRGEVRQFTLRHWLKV
For the next data set, the target named is NAd (Homo sapiens, UniProt P23975). Briefly: Inhibition of neurotransmitter uptake in vitro, noradrenaline. The class given is cell-based. Particulars: NAd = Noradrénaline; for IC50: read-out: UPTAKE NEUROTRANSMETTEUR IN VITRO IC 50 M NAd.
Chain of NAd (P23975 whole entry): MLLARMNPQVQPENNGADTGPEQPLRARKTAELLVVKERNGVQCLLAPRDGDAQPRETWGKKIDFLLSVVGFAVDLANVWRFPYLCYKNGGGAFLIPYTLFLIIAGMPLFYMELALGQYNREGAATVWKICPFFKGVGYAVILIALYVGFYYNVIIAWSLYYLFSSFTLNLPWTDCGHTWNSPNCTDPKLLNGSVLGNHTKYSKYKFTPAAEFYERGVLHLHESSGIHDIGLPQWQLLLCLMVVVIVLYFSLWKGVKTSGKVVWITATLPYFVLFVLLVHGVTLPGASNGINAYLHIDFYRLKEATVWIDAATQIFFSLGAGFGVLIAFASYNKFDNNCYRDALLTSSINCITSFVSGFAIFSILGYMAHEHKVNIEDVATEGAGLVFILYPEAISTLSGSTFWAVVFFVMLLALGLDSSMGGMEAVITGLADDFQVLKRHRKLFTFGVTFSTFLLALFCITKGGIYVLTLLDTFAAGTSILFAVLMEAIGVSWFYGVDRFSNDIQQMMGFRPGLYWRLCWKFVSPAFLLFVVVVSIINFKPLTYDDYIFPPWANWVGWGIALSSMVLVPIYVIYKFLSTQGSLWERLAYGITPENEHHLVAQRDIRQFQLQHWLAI
The target of the next data set is 5-HT (Homo sapiens, UniProt P31645). Briefly: Inhibition of neurotransmitter uptake in vitro, 5-HT. The format is cell-based. The following applies: for IC50: 5-HT = (so in the source), read-out: UPTAKE NEUROTRANSMETTEUR IN VITRO IC 50 M 5-HT.
Chain of 5-HT (P31645 whole entry): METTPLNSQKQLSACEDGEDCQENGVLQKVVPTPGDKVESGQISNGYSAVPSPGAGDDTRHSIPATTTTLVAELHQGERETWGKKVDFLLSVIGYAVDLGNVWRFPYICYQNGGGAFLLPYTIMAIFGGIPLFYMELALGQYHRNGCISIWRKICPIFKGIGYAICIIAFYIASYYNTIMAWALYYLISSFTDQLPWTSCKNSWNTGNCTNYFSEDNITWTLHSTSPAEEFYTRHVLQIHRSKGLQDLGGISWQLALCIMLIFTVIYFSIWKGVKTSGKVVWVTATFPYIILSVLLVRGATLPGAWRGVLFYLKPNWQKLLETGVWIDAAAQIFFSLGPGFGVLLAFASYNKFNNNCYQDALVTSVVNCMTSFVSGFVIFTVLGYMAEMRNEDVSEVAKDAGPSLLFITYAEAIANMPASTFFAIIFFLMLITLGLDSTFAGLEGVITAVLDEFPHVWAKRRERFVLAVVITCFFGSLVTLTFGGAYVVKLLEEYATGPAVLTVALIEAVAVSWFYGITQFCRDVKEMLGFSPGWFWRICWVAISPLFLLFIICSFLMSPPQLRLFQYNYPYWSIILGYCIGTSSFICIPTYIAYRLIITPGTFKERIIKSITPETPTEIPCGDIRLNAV
For data set [1] the following is noted: mouse, doses 0,75 à 20 mg/kg.
The nature of data set [2]: Motor activity (exploration) in the mouse. The format is in vivo, souris.
Another data set has as its system récepteurs α₂. The following applies: lizard; Carter and Shuster, Br. J. Pharmacol. (1982), 75, 169-176; cited from earlier work.
Data set [3] is described as follows: Cardiovascular activity in the anaesthetised dog. The class given is in vivo, chien. The text has this: Les 2-amino-oxazolines selon l'invention se caractérisent par des propriétés pharmacologiques intéressantes, et notamment par des propriétés anti-dépressives, hypertensives et analeptiques vasculaires. Elles agissent sur les récepteurs α₂, soit par un phénomène de bloquage, soit par un effet agoniste. […] Cet effet s'apparente donc à celui de la Yohimbine.
Chez le chien anesthésié, l'injection des produits selon l'invention provoque une hypertension durable, à des doses relativement faibles, allant de 0,05 à 1 mg/kg I.V.

The conditions of data set [4]: in vivo.

Take `NC1=NC(Cc2ccccc2)CO1` (single isomer, unassigned) [ex. 12]: the IC50 is 4 nM at RECEPTEURS α2, 4000 nM on DA, 400 nM at NAd and more than 10000 nM on 5-HT.
In the case of `NC1=NC(Cc2ccccc2Cl)CO1` (racemic) [ex. 11], the IC50 on RECEPTEURS α2 was 2.7 nM; on DA it was more than 10000 nM; at NAd, 2500 nM; on 5-HT it was more than 10000 nM.
With `NC1=NC(COc2ccccc2)CO1` (racemic) [ex. 6, 4-phénoxy-méthyl 2-amino-oxazoline], the IC50 on DA and on 5-HT was more than 10000 nM each time. The “UPTAKE NEUROTRANSMETTEUR IN VITRO IC 50 M NAd” value on NAd was “nul à 10^-5”.
Turning to `NC1=NC(CCc2ccccc2)CO1` (racemic) [ex. 13], the IC50 is more than 100 nM at RECEPTEURS α2 and 230 nM at NAd. In addition, the “UPTAKE NEUROTRANSMETTEUR IN VITRO IC 50 M DA” value at DA is on record as “nul à 10^-6”. Also, the “UPTAKE NEUROTRANSMETTEUR IN VITRO IC 50 M 5-HT” value at 5-HT (5-HT = 5-hydroxytryptophane (so in the source)) was “nul à 10^-6”.
Take `c1ccc2c(c1)OCC(C1=NCCN1)O2` (centres unmarked) [IDAZOXAN, reference compound]: the IC50 on RECEPTEURS α2 is 29 nM.
Take `NC1=NC(COc2ccccc2Cl)CO1` (centres unmarked) [ex. 5, 4-(2-chlorophénoxyméthyl) 2-amino-oxazoline]: the IC50 on RECEPTEURS α2 was 33 nM; on DA it was 7200 nM; at NAd, more than 10000 nM; at 5-HT, 2800 nM.
Consider `COc1ccc(OCC2COC(N)=N2)cc1` (centres unmarked) [ex. 7, 4-(4-méthoxyphenoxymethyl) 2-amino-oxazoline], for which the IC50 at RECEPTEURS α2 is more than 100 nM; at 5-HT, more than 10000 nM. In addition, the “UPTAKE NEUROTRANSMETTEUR IN VITRO IC 50 M DA” value at DA is on record as “nul à 10^-5”. At NAd, the “UPTAKE NEUROTRANSMETTEUR IN VITRO IC 50 M NAd” value is reported as “nul à 10^-5”.
Regarding `Cc1ccc(N(CC2=NCCN2)c2cccc(O)c2)cc1` [PHENTOLAMINE, reference compound], the IC50 at RECEPTEURS α2 turned out to be 22 nM.
Same read-out and setting: the value for `NC1=NC(Cc2ccccc2Cl)CO1` (single isomer, unassigned) [ex. 23] was 3.3 nM.
`Clc1cccc(Cl)c1N=C1NCCN1` [CLONIDINE]: the température centrale entry in data set [1] is given as “baisse de température”. Further, in [2], the exploration result is on record as “diminuent l'exploration”. The IC50 on RECEPTEURS α2 came to 1 nM. In addition, the “noircissement qui résulte du traitement par le MSH” value in the data set on récepteurs α₂ is on record as “antagonisé”. For the same compound, in data set [3], the “activité vasomotrice (vasodilatation ou vasoconstriction primaire)” value is on record as “activité vasoconstrictive d'emblée”. For the same compound, the “activité diabétogène” value in data set [4] is “activité diabétogène expérimentale”.
Take `NC1=NC(COCc2ccccc2)CO1` (centres unmarked) [ex. 8, 4-(benzyloxy-méthyl) 2-amino-oxazoline]: the IC50 is more than 100 nM on RECEPTEURS α2 and more than 10000 nM at 5-HT. The “UPTAKE NEUROTRANSMETTEUR IN VITRO IC 50 M DA” value at DA is reported as “nul à 10^-5”. The “UPTAKE NEUROTRANSMETTEUR IN VITRO IC 50 M NAd” value at NAd is on record as “nul à 10^-5”.
As for `NC1=NC(Cc2ccc(Cl)cc2)CO1` (racemic) [ex. 10], the IC50 on RECEPTEURS α2 is 44 nM; on DA, 2300 nM; at NAd, 4000 nM; on 5-HT it was 4000 nM.
Consider `NC1=NC(Cc2ccc(O)cc2)CO1` (racemic) [ex. 20], for which the IC50 at RECEPTEURS α2 was more than 100 nM.
